Values after ≈ are worked out from the molar mass of the structure shown. Where two headings read alike, the source gives them in different places.
How the values were obtained:
Test in all cases: MIC, dilution in liquid medium
Format in all cases: cell-based
[1] = test system: Bacillus subtilis ATCC 6 633; conditions: Bacillus subtilis
Protocol: (§1) The method used was a dilution of a liquid medium where a series of tubes received the same quantity of a sterile nutritive media and increasing doses of the test compounds were placed therein. Then each tube was seeded with a bacterial strain and was incubated for 24 to 48 hours at 37° C. in an oven. The increasing inhibition was determined by transillumination to determine the minimum inhibiting concentration (MIC in […]) and the results are reported in the following Tables.

[2] = test system: Escherichia Coli Exp. TO26 B6; conditions: Escherichia coli
Protocol: as §1

[3] = test system: Escherichia Coli Resistant Gentamicine, Tobramycine R 55 123 D; conditions: Escherichia coli, read-out: M.I.C.
Protocol: as §1

[4] = test system: Escherichia Coli Resistant Tetracycline ATCC 11 303 = UC 1261; conditions: Escherichia coli
Protocol: as §1

[5] = test system: Escherichia Coli Sensible Tetracycline ATCC 9 637 = 1020; conditions: Escherichia coli
Protocol: as §1

[6] = test system: Klebsiella pneumoniae 2 536 Resistant Gentamicine; conditions: Klebsiella pneumoniae
Protocol: as §1

[7] = test system: Klebsiella pneumoniae Exp. 52 145; conditions: Klebsiella pneumoniae
Protocol: as §1

[8] = test system: Proteus mirabilis (indol-) A 235; conditions: Proteus mirabilis
Protocol: as §1

[9] = test system: Proteus vulgaris (indol+) A 232; conditions: Proteus vulgaris
Protocol: as §1

Providencia Du 48 = conditions: Providencia
Protocol: as §1

[10] = test system: Pseudomonas 3 935 Exp. SG; conditions: Pseudomonas, 3935EXP.SG
Protocol: as §1

[11] = test system: Salmonella typhimurium 420; conditions: Salmonella enterica, TYPHIMURIUM, 24 h
Protocol: as §1

[12] = test system: Serratia Resistant Gentamicine 2 532
Protocol: as §1

[13] = test system: Staphylococcus aureus ATCC 5 638 Pen-Sensible = UC 1061
Protocol: as §1

[14] = test system: Staphylococcus aureus UC 1 128 Pen-Resistant; conditions: Staphylococcus aureus
Protocol: as §1

[15] = test system: Staphylococcus aureus exp. n° 54 146; conditions: Staphylococcus aureus
Protocol: as §1

[16] = test system: Streptococcus faecalis 5 432
Protocol: as §1

[17] = test system: Streptococcus faecalis 99 F 74; conditions: Enterococcus faecalis
Protocol: as §1

[18] = test system: Streptococcus pyogenes A 561; conditions: Streptococcus pyogenes
Protocol: as §1

## CO/N=C(/C(=O)NC1C(=O)N2C(C(=O)O)=C(COC(C)=O)CSC12)c1csc(N)n1 (stereo not drawn) [Product A, anti isomer of 3-acetoxymethyl-7-[2-(2-amino-4-thiazolyl)-2-methoxyimino-acetamido]-ceph-3-eme-4-carboxylic acid]
[1]; ATCC6, 24 h, 24 H
  MIC: 20 µg/mL (≈ 43.9 µM)
[1]; ATCC6, 48 h, 48 H
  MIC: 20 µg/mL (≈ 43.9 µM)
[2]; 24 h
  MIC: 5 µg/mL (≈ 11 µM)
[2]; 48 h
  MIC: 5 µg/mL (≈ 11 µM)
[3]; 24 h
  MIC: 10 µg/mL (≈ 22 µM)
[3]; 48 h
  MIC: 10 µg/mL (≈ 22 µM)
[4]; 24 h
  MIC: 2 µg/mL (≈ 4.39 µM)
[4]; 48 h
  MIC: 2 µg/mL (≈ 4.39 µM)
[5]; ATCC9, 24 h, 24 H
  MIC: 20 µg/mL (≈ 43.9 µM)
[5]; ATCC9, 48 h, 48 H
  MIC: 40 µg/mL (≈ 87.8 µM)
[6]; 24 h
  MIC: > 40 µg/mL
[6]; 48 h
  MIC: > 40 µg/mL
[7]; EXP.52145, 24 h, 24 H
  MIC: 1 µg/mL (≈ 2.2 µM)
[7]; EXP.52145, 48 h, 48 H
  MIC: 1 µg/mL (≈ 2.2 µM)
[8]; 24 h
  MIC: 2 µg/mL (≈ 4.39 µM)
[8]; 48 h
  MIC: 2 µg/mL (≈ 4.39 µM)
[9]; 24 h
  MIC: > 40 µg/mL
[9]; 48 h
  MIC: > 40 µg/mL
Providencia Du 48; DU48, 24 h, 24 H
  MIC: 40 µg/mL (≈ 87.8 µM)
Providencia Du 48; DU48, 48 h, 48 H
  MIC: > 40 µg/mL
[10]; 24 h
  MIC: > 40 µg/mL
[10]; 48 h
  MIC: > 40 µg/mL
[11]
  MIC: 20 µg/mL (≈ 43.9 µM)
[12]; 24 h
  MIC: > 40 µg/mL
[12]; 48 h
  MIC: > 40 µg/mL
[13]; 24 h
  MIC: 40 µg/mL (≈ 87.8 µM)
[13]; 48 h
  MIC: 40 µg/mL (≈ 87.8 µM)
[14]; UC1, 24 h, 24 H
  MIC: > 40 µg/mL
[14]; UC1, 48 h, 48 H
  MIC: > 40 µg/mL
[15]; 24 h
  MIC: 40 µg/mL (≈ 87.8 µM)
[15]; 48 h
  MIC: 40 µg/mL (≈ 87.8 µM)
[16]; Enterococcus faecalis, 5432, 24 h, 24 H
  MIC: > 40 µg/mL
[16]; Enterococcus faecalis, 5432, 48 h, 48 H
  MIC: > 40 µg/mL
[17]; 99F74, 24 h, 24 H
  MIC: > 40 µg/mL
[17]; 99F74, 48 h, 48 H
  MIC: > 40 µg/mL
[18]; A561, 24 h
  MIC: 0.4 µg/mL (≈ 0.878 µM)
[18]; A561, 48 h
  MIC: 0.4 µg/mL (≈ 0.878 µM)

From patent US4196205A, “3-Acetoxymethyl-7-(iminoacetamido)-cephalosporanic acid derivatives” (priority 1976, dated 1980)
